Reference: publication PMC11672562, “Synthesis and Antibacterial Activity of New 6″-Modified Tobramycin Derivatives” (Antibiotics, 2024)
Values after ≈ are worked out from the molar mass of the structure shown.

Columns and labels:
[1] = tested on: E. coli S30 Extract System, firefly luciferase synthesis; assay: Cell-free translation inhibition assay (firefly luciferase synthesis); type: biochemical; conditions: final concentration of 2 μM; water = 100
Protocol: The inhibitory effects of the tested compounds on in vitro firefly luciferase synthesis were evaluated using the E. coli S30 Extract System for Linear Templates (Promega, Madison, WI, USA), as described previously. Briefly, reaction mixtures with a total volume of 5 μL were prepared, containing 0.1 mM of a mixture of all canonical amino acids, 4 U of RiboLock RNase Inhibitor (Thermo Fisher Scientific, Waltham, MA, USA), and 2 μM of the tested compounds. After pre-incubation at room temperature for 5 min, 100 ng of in vitro-transcribed firefly luciferase mRNA was added. The mixtures were then incubated at 37 °C for 20 min. After incubation, each reaction was supplemented with 5 μL of Bright-Glo™ reagent (Promega, Madison, WI, USA), and chemiluminescence was measured using a VICTOR X5 Multilabel Plate Reader (PerkinElmer, Waltham, MA, USA). The luminescence values were normalized to the negative control (water), which was assigned 100% activity.

MTT cytotoxicity assay = type: cell-based; conditions: human, MTT test, HEK293T cells
Protocol: An MTT assay was conducted to assess the cytotoxicity of compounds on HEK293T cell lines. Cell line HEK293T was kindly provided by Dr. E. Knyazhanskaya. A total of 2500 cells per well were seeded into 96-well plates containing 100 μL of DMEM/F12 medium (Paneco LLC, Moscow, Russia) and incubated at 37 °C with 5% CO2 for 24 h prior to treatment. Dilutions of the test compounds 4a, 4b, 6a, and 6b, prepared in deionized sterile water, were added in 11 μL aliquots to achieve final concentrations ranging from 8.75 to 140 μg/mL (five dilutions per compound) in triplicate. The cells were incubated with the compounds for 72 h, after which 0.5 mg/mL of MTT reagent (Paneco LLC, Russia) was added. Following a 1.5 h incubation, the medium was removed, and 120 μL of DMSO was added to dissolve the blue formazan derivative formed by metabolically active cells. The absorbance at 565 nm was measured using a plate reader, and the data were normalized to untreated control cells. The half-maximal inhibitory concentration (IC50) was calculated using GraphPad Prism 5 software (GraphPad Software, Inc., San Diego, CA, USA).

| Compound | % control signal (relative maximal rate of firefly luciferase accumulation in vitro) [1] | IC50 at 72 h (MTT cytotoxicity assay) |
| --- | --- | --- |
| NC[C@H]1O[C@H](O[C@H]2[C@H](O)[C@@H](O[C@H]3O[C@H](CO)[C@@H](O)[C@H](N)[C@H]3O)[C@H](N)C[C@@H]2N)[C@H](N)C[C@@H]1O [Tobramycin, tobramycin] | 0.01% | 58 ± 3 µg/mL (≈ 124 µM) |
| N=C(N)NCCNC[C@H]1O[C@H](O[C@@H]2[C@@H](O)[C@H](O[C@H]3O[C@H](CN)[C@@H](O)C[C@H]3N)[C@@H](N)C[C@H]2N)[C@H](O)[C@@H](N)[C@@H]1O [Compound 6a, 6″-(2-Guanidinoethylamino)-6″-deoxytobramycin acetate] | 0.4% | > 140 µg/mL |
| N=C(N)NCCCNC[C@H]1O[C@H](O[C@@H]2[C@@H](O)[C@H](O[C@H]3O[C@H](CN)[C@@H](O)C[C@H]3N)[C@@H](N)C[C@H]2N)[C@H](O)[C@@H](N)[C@@H]1O [Compound 6b, 6″-(3-Guanidinopropyl-1-amino)-6″-deoxytobramycin acetate] | 21% | > 140 µg/mL |
| NCCNC[C@H]1O[C@H](O[C@@H]2[C@@H](O)[C@H](O[C@H]3O[C@H](CN)[C@@H](O)C[C@H]3N)[C@@H](N)C[C@H]2N)[C@H](O)[C@@H](N)[C@@H]1O [Compound 4a, 6″-(2-Aminoethyamino)-6″-deoxytobramycin acetate] | 0.02% | > 140 µg/mL |
| NCCCNC[C@H]1O[C@H](O[C@@H]2[C@@H](O)[C@H](O[C@H]3O[C@H](CN)[C@@H](O)C[C@H]3N)[C@@H](N)C[C@H]2N)[C@H](O)[C@@H](N)[C@@H]1O [Compound 4b, 6″-(3-Aminopropyl-1-amino)-6″-deoxytobramycin acetate] | 7% | > 140 µg/mL |
